# Patent publication US7307063B2, “Melanocortin metallopeptides for treatment of sexual dysfunction” (Palatin Technologies, Inc., priority 2001, dated 2007)
# Non-standard residues stand in square brackets, D forms with d. No end group written: not given here. dIgl = N[C@@H](C(=O)O)C1Cc2ccccc2C1; Igl = N[C@H](C(=O)O)C1Cc2ccccc2C1; Ahp = NCCCCCCC(=O)O
# Legend:
# MC4-R = molecular target: T1, MC4-R (Homo sapiens, UniProt P32245); assay: Competitive binding assay: inhibition of 125I-NDP-α-MSH binding to HEK-293 membranes with cloned human receptor subtype 4; settings: Table 6; 1 μM; mean of triplicate
# T1 construct: expressed in transfected cells; host or cells: HEK-293
# Outline: (§1)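 Rhenium-complexed metallopeptides at a chosen single concentration competed with 125I-NDP-α-MSH on membranes of HEK-293 expressing cloned human MC receptors or, for MC1-R, B16-F10 mouse melanoma cells. Percent inhibition normalized to specific binding (nonspecific defined with 1 μM α-MSH); means of triplicates.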
# hMC2-R = molecular target: T2, hMC2-R (Homo sapiens, UniProt P41968); assay: Competitive binding assay of additional compounds, Table 6 hMC2-R; settings: 1 μM, mean of triplicate
# T2 construct: expressed in transfected cells; host or cells: HEK-293
# MC1-R = molecular target: T3, MC1-R (Mus musculus, UniProt Q01727); assay: Competitive binding assay: inhibition of 125I-NDP-α-MSH binding to membranes from B16-F10 mouse melanoma cells; settings: Table 6; 1 μM; mean of triplicate
# T3 construct: MC1-R membranes were isolated from B16—F10 mouse melanoma cells; endogenous in cells; host or cells: B16-F10 mouse melanoma cells
# Outline: as §1
# hMC5-R = molecular target: T4, hMC5-R (Homo sapiens, UniProt P33032); assay: Competitive binding assay: inhibition of 125I-NDP-α-MSH binding to HEK-293 membranes with cloned human receptor subtype 5; settings: Table 6; 1 μM; mean of triplicate
# T4 construct: expressed in transfected cells; host or cells: HEK-293
# Outline: as §1
# T3 sequence (Q01727 whole entry): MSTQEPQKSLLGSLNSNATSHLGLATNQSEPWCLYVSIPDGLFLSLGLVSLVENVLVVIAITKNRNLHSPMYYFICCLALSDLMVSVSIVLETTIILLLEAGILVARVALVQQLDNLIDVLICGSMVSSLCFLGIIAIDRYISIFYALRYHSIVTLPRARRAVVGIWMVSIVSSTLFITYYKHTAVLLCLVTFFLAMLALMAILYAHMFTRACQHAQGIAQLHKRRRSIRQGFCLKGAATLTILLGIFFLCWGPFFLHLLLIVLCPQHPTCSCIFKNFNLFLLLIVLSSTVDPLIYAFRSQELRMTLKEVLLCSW
# T1 sequence (P32245 whole entry): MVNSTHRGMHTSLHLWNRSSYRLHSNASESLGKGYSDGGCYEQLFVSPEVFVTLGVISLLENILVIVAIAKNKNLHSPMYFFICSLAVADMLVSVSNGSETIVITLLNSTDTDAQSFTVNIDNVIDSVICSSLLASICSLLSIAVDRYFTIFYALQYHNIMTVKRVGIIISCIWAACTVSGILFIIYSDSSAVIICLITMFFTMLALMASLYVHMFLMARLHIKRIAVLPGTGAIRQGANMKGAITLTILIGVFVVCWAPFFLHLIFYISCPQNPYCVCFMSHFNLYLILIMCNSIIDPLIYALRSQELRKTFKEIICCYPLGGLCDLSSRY
# T4 sequence (P33032 whole entry): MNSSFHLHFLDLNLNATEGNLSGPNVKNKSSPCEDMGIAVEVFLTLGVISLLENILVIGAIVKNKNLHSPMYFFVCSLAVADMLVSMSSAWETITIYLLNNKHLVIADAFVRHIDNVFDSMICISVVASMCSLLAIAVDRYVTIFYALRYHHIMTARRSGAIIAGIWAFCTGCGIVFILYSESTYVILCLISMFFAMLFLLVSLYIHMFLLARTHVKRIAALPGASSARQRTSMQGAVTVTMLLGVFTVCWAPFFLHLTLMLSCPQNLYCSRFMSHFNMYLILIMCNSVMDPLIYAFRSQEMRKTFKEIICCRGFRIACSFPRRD
# T2 sequence (P41968 whole entry): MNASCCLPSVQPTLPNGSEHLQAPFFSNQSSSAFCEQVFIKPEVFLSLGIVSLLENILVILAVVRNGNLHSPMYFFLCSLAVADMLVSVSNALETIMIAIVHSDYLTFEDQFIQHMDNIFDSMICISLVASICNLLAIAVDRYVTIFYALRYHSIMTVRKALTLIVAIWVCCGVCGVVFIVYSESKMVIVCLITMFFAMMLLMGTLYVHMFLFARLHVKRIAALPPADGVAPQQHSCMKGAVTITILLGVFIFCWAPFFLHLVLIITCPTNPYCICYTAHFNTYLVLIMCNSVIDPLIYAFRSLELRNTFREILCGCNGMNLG
Substance,% Inhibition of Binding hMC4-R (MC4-R) [%],% Inhibition of Binding hMC2-R (hMC2-R) [%],% Inhibition of Binding MC1-R (MC1-R) [%],% Inhibition of Binding hMC5-R (hMC5-R) [%]
[dIgl][dF]RWC-NH2,8,0,2,63
[Igl][dF]RWC-NH2,62,0,70,36
[dP][dF]RCW-NH2,13,0,53,67
7-amino-Heptanoyl-D-Igl-D-Phe-Arg-Trp-Cys-NH2 ([Ahp][dIgl][dF]RWC-NH2; not fully specified; printed as 7-amino-Heptanoyl-D-Igl-D-Phe-Arg-Trp-Cys-NH2),5,0,47,35
Ser(Bzl)-D-Phe-Arg-Trp-Cys-NH2 ({Ser(Bzl)}-[dF]RWC-NH2; also: metal complex),28,0,27,69
7-amino-haptanoyl-D-Igl-D-Phe-Arg-Cys-NH2,10,0,8,32
Ac-Nle-Ala-His-D-Phe-Arg-D-Nal 1′-Cys-NH2,47,3,93,5
3′-Bromo phenyl acetyl-Lys-Ala-D-Phe(3′-Cl)-Cys-Trp-NH2,38,13,4,60
Allo-Thr-D-Phe-Arg-Trp-Cys-NH2,22,0,28,2
Hept-Ser(Bzl)-D-Phe(4′-Cl)-Arg-Trp-Cys-NH2,88,85,85,100
Idc-D-Phe-Arg-Cys-Trp-NH2,4,0,0,19
